# Assay results from patent US12077503B2, “Substituted cyclic amides and their use as herbicides” (FMC CORPORATION, priority 2015, dated 2024).
# How the values were obtained:
# Assay type in all cases: in vivo
# [1] = tested on: barnyardgrass (Echinochloa crus-galli); assay: Test G Pre-Emergence Protocol; settings: Echinochloa crus-galli, pre-emergence, 312 h, evaluated after 13 days
# How it was run: (§1)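 One day after sowing, pots are treated with a spray of test compound formulated in acetone/water 50:50 plus 0.5% Tween 20, giving 15.625, 62.5 or 250 g/ha. Evaluation on a 0–100 damage scale follows 13 days of glasshouse growth.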
# [2] = tested on: ivy-leaved morning glory (Ipomoea hederacea); assay: Test G Pre-Emergence Protocol; settings: Ipomoea, pre-emergence, 312 h, evaluated after 13 days
# How it was run: as §1
# [3] = tested on: redroot pigweed (Amaranthus retroflexus); assay: Test G Pre-Emergence Protocol; settings: Amaranthus retroflexus, pre-emergence, 312 h, evaluated after 13 days
# How it was run: as §1
# corn (Zea mays) [4] = assay: Test G Pre-Emergence Protocol; settings: Zea mays, pre-emergence, 312 h, evaluated after 13 days
# How it was run: as §1
# [5] = tested on: velvetleaf (Abutilon theophrasti); assay: Test G Pre-Emergence Protocol; settings: Abutilon theophrasti, pre-emergence, 312 h, evaluated after 13 days
# How it was run: as §1
# [6] = tested on: giant foxtail (Setaria faberi); assay: Test G Pre-Emergence Protocol; settings: Setaria faberi, pre-emergence, 312 h, evaluated after 13 days
# How it was run: as §1
# [7] = tested on: barnyardgrass (Echinochloa crus-galli); assay: Test G Post-Emergence Protocol; settings: Echinochloa crus-galli, post-emergence, 312 h, read-out: Barnyardgrass damage rating
# How it was run: (§2)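 Foliar application was made 8 days after sowing, using an aqueous spray of the active in acetone/water (50:50) with 0.5% Tween 20, at doses of 15.625, 62.5 or 250 g/ha. Injury was assessed 13 days later, where 100 meant the plant was fully damaged.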
# [8] = tested on: ivy-leaved morning glory (Ipomoea hederacea); assay: Test G Post-Emergence Protocol; settings: Ipomoea, post-emergence, 312 h, read-out: Morningglory, Ivy-leaved damage rating
# How it was run: as §2
# [9] = tested on: redroot pigweed (Amaranthus retroflexus); assay: Test G Post-Emergence Protocol; settings: Amaranthus retroflexus, post-emergence, 312 h, read-out: Pigweed, Redroot damage rating
# How it was run: as §2
# corn (Zea mays) [10] = assay: Test G Post-Emergence Protocol; settings: Zea mays, post-emergence, 312 h, read-out: Corn damage rating
# How it was run: as §2
# [11] = tested on: velvetleaf (Abutilon theophrasti); assay: Test G Post-Emergence Protocol; settings: Abutilon theophrasti, post-emergence, 312 h, read-out: Velvetleaf damage rating
# How it was run: as §2
# [12] = tested on: giant foxtail (Setaria faberi); assay: Test G Post-Emergence Protocol; settings: Setaria faberi, post-emergence, 312 h, read-out: Foxtail, Giant damage rating
# How it was run: as §2
# [13] = 15.625 g ai/ha, evaluated after 13 days (100=total damage to plant; 0=no damage to plant)
# [14] = 62.5 g ai/ha, evaluated after 13 days, 100=total damage to plant, 0=no damage to plant
# [15] = 250 g ai/ha, evaluated after 13 days, 100=total damage to plant, 0=no damage to plant
structure (smiles),measurement,setting,value
CN1C[C@H](c2ccc(C(F)(F)F)cc2)[C@@H](C(=O)Nc2cnccc2C#N)C1=O (racemic) [Compound 1760],pest or weed control at 15.625 g/ha,"[1]; 15.625 g ai/ha, read-out: Barnyardgrass damage rating (100=total damage to plant; 0=no damage to plant)",0%
same,pest or weed control at 62.5 g/ha,"[1]; 62.5 g ai/ha, 100=total damage to plant, 0=no damage to plant, read-out: Barnyardgrass damage rating",0%
same,pest or weed control at 250 g/ha,"[1]; 250 g ai/ha, read-out: Barnyardgrass damage rating (100=total damage to plant; 0=no damage to plant)",0%
same,pest or weed control at 15.625 g/ha,"[2]; 15.625 g ai/ha, read-out: Morningglory, Ivy-leaved damage rating (100=total damage to plant; 0=no damage to plant)",0%
same,pest or weed control at 62.5 g/ha,"[2]; 62.5 g ai/ha, 100=total damage to plant, 0=no damage to plant, read-out: Morningglory, Ivy-leaved damage rating",0%
same,pest or weed control at 250 g/ha,"[2]; 250 g ai/ha, read-out: Morningglory, Ivy-leaved damage rating (100=total damage to plant; 0=no damage to plant)",0%
same,pest or weed control at 15.625 g/ha,"[3]; 15.625 g ai/ha, read-out: Pigweed, Redroot damage rating (100=total damage to plant; 0=no damage to plant)",0%
same,pest or weed control at 62.5 g/ha,"[3]; 62.5 g ai/ha, 100=total damage to plant, 0=no damage to plant, read-out: Pigweed, Redroot damage rating",0%
same,pest or weed control at 250 g/ha,"[3]; 250 g ai/ha, read-out: Pigweed, Redroot damage rating (100=total damage to plant; 0=no damage to plant)",0%
same,plant injury at 15.625 g/ha,"corn (Zea mays) [4]; 15.625 g ai/ha, read-out: Corn damage rating (100=total damage to plant; 0=no damage to plant)",0%
same,plant injury at 62.5 g/ha,"corn (Zea mays) [4]; 62.5 g ai/ha, 100=total damage to plant, 0=no damage to plant, read-out: Corn damage rating",0%
same,plant injury at 250 g/ha,"corn (Zea mays) [4]; 250 g ai/ha, read-out: Corn damage rating (100=total damage to plant; 0=no damage to plant)",0%
same,pest or weed control at 15.625 g/ha,"[5]; 15.625 g ai/ha, read-out: Velvetleaf damage rating (100=total damage to plant; 0=no damage to plant)",0%
same,pest or weed control at 62.5 g/ha,"[5]; 62.5 g ai/ha, 100=total damage to plant, 0=no damage to plant, read-out: Velvetleaf damage rating",0%
same,pest or weed control at 250 g/ha,"[5]; 250 g ai/ha, read-out: Velvetleaf damage rating (100=total damage to plant; 0=no damage to plant)",0%
same,pest or weed control at 15.625 g/ha,"[6]; 15.625 g ai/ha, read-out: Foxtail, Giant damage rating (100=total damage to plant; 0=no damage to plant)",0%
same,pest or weed control at 62.5 g/ha,"[6]; 62.5 g ai/ha, 100=total damage to plant, 0=no damage to plant, read-out: Foxtail, Giant damage rating",0%
same,pest or weed control at 250 g/ha,"[6]; 250 g ai/ha, read-out: Foxtail, Giant damage rating (100=total damage to plant; 0=no damage to plant)",30%
same,pest or weed control at 15.625 g/ha,[7]; [13],0%
same,pest or weed control at 62.5 g/ha,[7]; [14],0%
same,pest or weed control at 250 g/ha,[7]; [15],10%
same,pest or weed control at 15.625 g/ha,[8]; [13],0%
same,pest or weed control at 62.5 g/ha,[8]; [14],0%
same,pest or weed control at 250 g/ha,[8]; [15],20%
same,pest or weed control at 15.625 g/ha,[9]; [13],0%
same,pest or weed control at 62.5 g/ha,[9]; [14],0%
same,pest or weed control at 250 g/ha,[9]; [15],0%
same,plant injury at 15.625 g/ha,corn (Zea mays) [10]; [13],0%
same,plant injury at 62.5 g/ha,corn (Zea mays) [10]; [14],0%
same,plant injury at 250 g/ha,corn (Zea mays) [10]; [15],10%
same,pest or weed control at 15.625 g/ha,[11]; [13],0%
same,pest or weed control at 62.5 g/ha,[11]; [14],0%
same,pest or weed control at 250 g/ha,[11]; [15],10%
same,pest or weed control at 15.625 g/ha,[12]; [13],0%
same,pest or weed control at 62.5 g/ha,[12]; [14],0%
same,pest or weed control at 250 g/ha,[12]; [15],20%
